The values that follow come from patent publication US6358947B1 (American Home Products Corporation, priority 1999, dated 2002).

Structures are written as SMILES. Read-outs that look alike come from different tables or passages of the source.

One assay concerns the target T1, human PR (Homo sapiens, UniProt P06401).
T1 sequence (P06401 1-933): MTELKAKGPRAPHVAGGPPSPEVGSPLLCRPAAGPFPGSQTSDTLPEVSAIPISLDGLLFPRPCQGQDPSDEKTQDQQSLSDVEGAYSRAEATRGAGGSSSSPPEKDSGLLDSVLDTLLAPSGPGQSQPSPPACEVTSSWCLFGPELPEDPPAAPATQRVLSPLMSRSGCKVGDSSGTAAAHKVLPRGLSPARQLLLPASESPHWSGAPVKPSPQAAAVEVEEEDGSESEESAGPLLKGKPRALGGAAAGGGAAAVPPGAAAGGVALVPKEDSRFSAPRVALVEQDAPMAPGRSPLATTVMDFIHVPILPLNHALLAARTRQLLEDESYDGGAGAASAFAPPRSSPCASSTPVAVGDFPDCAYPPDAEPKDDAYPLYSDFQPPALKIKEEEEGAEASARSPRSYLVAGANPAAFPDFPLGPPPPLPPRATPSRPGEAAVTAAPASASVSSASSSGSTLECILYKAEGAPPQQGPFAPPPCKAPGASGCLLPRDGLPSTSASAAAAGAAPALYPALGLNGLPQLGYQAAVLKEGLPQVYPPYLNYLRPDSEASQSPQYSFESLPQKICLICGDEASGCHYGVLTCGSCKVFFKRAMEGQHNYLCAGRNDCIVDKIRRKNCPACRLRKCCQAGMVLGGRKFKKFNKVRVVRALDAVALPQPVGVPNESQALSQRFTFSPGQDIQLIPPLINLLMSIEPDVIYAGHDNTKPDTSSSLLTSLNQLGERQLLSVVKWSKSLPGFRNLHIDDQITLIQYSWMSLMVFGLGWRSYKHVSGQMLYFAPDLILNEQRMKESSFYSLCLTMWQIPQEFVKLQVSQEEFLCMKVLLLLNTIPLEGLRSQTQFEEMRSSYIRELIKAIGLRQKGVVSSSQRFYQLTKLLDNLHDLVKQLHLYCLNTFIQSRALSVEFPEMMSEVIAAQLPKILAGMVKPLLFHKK
Nature of the assay: Cotransfection assay, PR agonist, CV-1 cells. The assay is classed as cell-based. Particulars: for PR Agonist CV-1 Cells Efficacy: percent maximal response relative to reference agonist.

For the next assay, the target named is T2, hER (Homo sapiens, UniProt P03372).
T2 sequence (P03372 1-595): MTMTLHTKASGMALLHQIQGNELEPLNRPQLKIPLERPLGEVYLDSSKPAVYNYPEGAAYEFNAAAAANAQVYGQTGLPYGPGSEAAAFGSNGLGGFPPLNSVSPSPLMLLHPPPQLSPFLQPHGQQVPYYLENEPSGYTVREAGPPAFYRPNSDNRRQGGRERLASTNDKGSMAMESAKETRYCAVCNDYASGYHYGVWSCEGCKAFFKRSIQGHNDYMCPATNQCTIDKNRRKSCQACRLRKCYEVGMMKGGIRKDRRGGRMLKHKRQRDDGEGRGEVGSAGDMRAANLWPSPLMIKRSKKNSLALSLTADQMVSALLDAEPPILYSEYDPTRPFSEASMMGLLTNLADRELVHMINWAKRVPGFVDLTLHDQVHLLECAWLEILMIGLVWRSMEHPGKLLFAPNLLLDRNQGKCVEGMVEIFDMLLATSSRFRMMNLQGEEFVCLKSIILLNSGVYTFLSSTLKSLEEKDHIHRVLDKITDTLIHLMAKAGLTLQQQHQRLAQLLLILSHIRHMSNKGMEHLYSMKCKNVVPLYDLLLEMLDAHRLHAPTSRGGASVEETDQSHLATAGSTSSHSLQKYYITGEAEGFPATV
Briefly: Cotransfection assay, ER agonist. The assay is classed as cell-based. Particulars: read-out: ER Potency Agon.

A further assay deals with T3, hPR-A (Homo sapiens, UniProt P06401).
T3 sequence (P06401 1-769 isoform P06401-2): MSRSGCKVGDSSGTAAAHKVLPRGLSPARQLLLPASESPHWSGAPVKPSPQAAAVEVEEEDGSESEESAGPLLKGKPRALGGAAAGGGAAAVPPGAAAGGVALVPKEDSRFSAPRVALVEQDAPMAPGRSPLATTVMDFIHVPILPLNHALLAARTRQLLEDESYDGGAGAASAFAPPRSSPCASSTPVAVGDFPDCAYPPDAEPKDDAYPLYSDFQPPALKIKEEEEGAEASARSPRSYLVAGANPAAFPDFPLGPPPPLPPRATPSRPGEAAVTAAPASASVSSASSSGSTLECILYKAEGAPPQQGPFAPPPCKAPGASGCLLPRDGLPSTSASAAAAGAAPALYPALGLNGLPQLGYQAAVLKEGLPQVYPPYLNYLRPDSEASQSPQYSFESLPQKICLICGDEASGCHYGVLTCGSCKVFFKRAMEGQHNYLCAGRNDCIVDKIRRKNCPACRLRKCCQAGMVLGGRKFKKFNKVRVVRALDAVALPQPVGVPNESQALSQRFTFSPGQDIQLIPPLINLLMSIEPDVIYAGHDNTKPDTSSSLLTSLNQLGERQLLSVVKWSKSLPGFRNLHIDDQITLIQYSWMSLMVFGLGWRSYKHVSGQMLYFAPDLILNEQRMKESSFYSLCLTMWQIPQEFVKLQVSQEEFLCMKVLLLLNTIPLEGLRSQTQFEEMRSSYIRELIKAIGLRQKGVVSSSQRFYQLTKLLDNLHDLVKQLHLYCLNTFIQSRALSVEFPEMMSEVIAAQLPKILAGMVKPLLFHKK
Briefly: PR receptor binding assay.

The mark [1] stands for this setting: CV-1 cells, Table 1, read-out: PR Agonist CV-1 Cells Potency.

Source text for hER: (§1) The cotransfection assay provides a method for identifying functional agonists and partial agonists that mimic, or antagonists that inhibit, the effect of native hormones, and for quantifying their activity for responsive intracellular receptor (IR) proteins. In this regard, the cotransfection assay mimics an in vivo system in the laboratory. Importantly, activity in the cotransfection assay correlates very well with known in vivo activity, such that the cotransfection assay functions as a qualitative and quantitative predictor of a tested compound's in vivo pharmacology.
(§2) In the cotransfection assay, a cloned cDNA for an IR (e.g., human PR, AR or GR) under the control of a constitutive promoter (e.g., the SV 40 promoter) is introduced by transfection (a procedure to induce cells to take up foreign genes) into a background cell substantially devoid of endogenous IRs. This introduced gene directs the recipient cells to make the IR protein of interest. A second gene is also introduced (cotransfected) into the same cells in conjunction with the IR gene. This second gene, comprising the cDNA for a reporter protein, such as firefly luciferase (LUC), is controlled by an appropriate hormone responsive promoter containing a hormone response element (HRE). This reporter plasmid functions as a reporter for the transcription-modulating activity of the target IR. Thus, the reporter acts as a surrogate for the products (mRNA, then protein) normally expressed by a gene under control of the target receptor and its native hormone.
(§3) The cotransfection assay can detect small molecule agonists or antagonists of target IRs. Exposing the transfected cells to an agonist ligand compound increases reporter activity in the transfected cells. This activity can be conveniently measured, e.g., by increasing luciferase production, which reflects compound-dependent, IR-mediated increases in reporter transcription. […] Increasing concentrations of a suspected antagonist will decrease the reporter signal (e.g., luciferase production). The cotransfection assay is therefore useful to detect both agonists and antagonists of specific IRs. Furthermore, it determines not only whether a compound interacts with a particular IR, but whether this interaction mimics (agonizes) or blocks (antagonizes) the effects of the native regulatory molecules on target gene expression, as well as the specificity and strength of this interaction.
Source text for human PR: as §1, §2, §3

As to `CC1(C)OC(=O)Nc2ccc3c(c21)COc1c(F)cc(C=NO)cc1-3` [Compound 25, 7-fluoro-9-hydroxyiminomethyl-4,4-dimethyl-5H-chromeno[3,4-f]-1,3-benzo[d]oxazin-2-one], the results for the EC50 on human PR (setting [1]) and on hER were 0.623 µM and above 10 µM, respectively. In addition, the “PR Agonist CV-1 Cells Efficacy” value on human PR (CV-1 cells) is on record as 46%. In addition, the affinity on hPR-A corresponds to a Ki of 0.065 µM.

As for `CC1(C)OC(=O)Nc2ccc3c(c21)COc1c(F)cc(Br)cc1-3` [Compound 20, 9-Bromo-7-fluoro-4,4-dimethyl-5H-chromeno[3,4-f]-1,3-benzo[d]oxazin-2-one], the EC50 at human PR (setting [1]) was 0.5 µM; on hER, above 10 µM. In addition, on human PR (CV-1 cells), the “PR Agonist CV-1 Cells Efficacy” value is on record as 30%. For the same compound, affinity at hPR-A was put at a Ki of 0.017 µM.

Regarding `CC1(C)OC(=O)Nc2ccc3c(c21)COc1c(F)cccc1-3` [Compound 14, 7-Fluoro-4,4-dimethyl-5H-chromeno[3,4-f]-1,3-benzo[d]oxazin-2-one], the values for the EC50 on human PR (setting [1]) and on hER were 2.5 µM and above 10 µM, respectively. Also, the “PR Agonist CV-1 Cells Efficacy” value on human PR (CV-1 cells) was 30%. This compound also returned a Ki at hPR-A of 0.172 µM.

On to `CC1(C)OC(=O)Nc2ccc3c(c21)COc1c(F)cc(C#N)cc1-3` [Compound 26, 9-cyano-7-fluoro-4,4-dimethyl-5H-chromeno[3,4-f]-1,3-benzo[d]oxazin-2-one], for which the EC50 at human PR (setting [1]) is 1 µM; at hER, above 10 µM. In addition, the “PR Agonist CV-1 Cells Efficacy” value on human PR (CV-1 cells) was determined as 60%. The compound also came in with a Ki at hPR-A of 0.02 µM.

Regarding `CC1(C)OC(=O)Nc2ccc3c(c21)COc1c(F)cc(C=O)cc1-3` [Compound 24, 7-fluoro-9-formyl-4,4-dimethyl-5H-chromeno[3,4-f]-1,3-benzo[d]oxazin-2-one], the EC50 at human PR (setting [1]) is above 10 µM; on human PR (Table 2, read-out: PR Potency Agon) it was above 10 µM; on hER, above 10 µM. In addition, on human PR (CV-1 cells), the “PR Agonist CV-1 Cells Efficacy” value was “na (na = not active (i.e. efficacy of <20 and potency of >10,000))”. On hPR-A, the Ki was found to be 0.181 µM.

What is called Ki is the equilibrium dissociation constant of an inhibitor or competing ligand from its target. Low readings indicate a stronger hold on the target, high ones a looser hold on the target.
